Legend:
barnyardgrass [1] = test: Test C preemergence; assay type: in vivo, Echinochloa crusgalli
In short: (§1)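 Greenhouse herbicide screen, 10-day duration. Test chemicals in solvent/surfactant blend were sprayed onto soil at sowing (pre) or onto 2–10 cm seedlings at one to two leaves (post); injury scored visually against controls, 0 no effect to 100 complete control.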

blackgrass [2] = test: Test C preemergence; assay type: in vivo, Alopecurus myosuroides
In short: as §1

corn [3] = test: Test C preemergence; assay type: in vivo, Zea mays
In short: as §1

green foxtail [4] = test: Test C preemergence; assay type: in vivo, Setaria viridis
In short: as §1

kochia [5] = test: Test C preemergence; assay type: in vivo, Bassia scoparia
In short: as §1

oat, wild [6] = test: Test C preemergence; assay type: in vivo, Avena fatua
In short: as §1

pigweed, palmer [7] = test: Test C preemergence; assay type: in vivo, Amaranthus palmeri
In short: as §1

ragweed [8] = test: Test C preemergence; assay type: in vivo, Ambrosia artemisiifolia
In short: as §1

ryegrass, Italian [9] = test: Test C preemergence; assay type: in vivo, Lolium multiflorum
In short: as §1

soybean [10] = test: Test C preemergence; assay type: in vivo, Glycine max
In short: as §1

wheat [11] = test: Test C preemergence; assay type: in vivo, Triticum aestivum
In short: as §1

barnyardgrass [12] = test: Test C postemergence; assay type: in vivo, Echinochloa crusgalli; details: 10 days, 0 to 100 scale (0 no effect, 100 complete control)
In short: as §1

blackgrass [13] = test: Test C postemergence; assay type: in vivo, Alopecurus myosuroides; details: 10 days, 0 to 100 scale (0 no effect, 100 complete control)
In short: as §1

corn [14] = test: Test C postemergence; assay type: in vivo, Zea mays; details: 10 days, 0 to 100 scale (0 no effect, 100 complete control)
In short: as §1

green foxtail [15] = test: Test C postemergence; assay type: in vivo, Setaria viridis; details: 10 days, 0 to 100 scale (0 no effect, 100 complete control)
In short: as §1

kochia [16] = test: Test C postemergence; assay type: in vivo, Bassia scoparia; details: 10 days, 0 to 100 scale (0 no effect, 100 complete control)
In short: as §1

oat, wild [17] = test: Test C postemergence; assay type: in vivo, Avena fatua; details: 10 days, 0 to 100 scale (0 no effect, 100 complete control)
In short: as §1

pigweed, palmer [18] = test: Test C postemergence; assay type: in vivo, Amaranthus palmeri; details: 10 days, 0 to 100 scale (0 no effect, 100 complete control)
In short: as §1

ragweed [19] = test: Test C postemergence; assay type: in vivo, Ambrosia artemisiifolia; details: 10 days, 0 to 100 scale (0 no effect, 100 complete control)
In short: as §1

ryegrass, Italian [20] = test: Test C postemergence; assay type: in vivo, Lolium multiflorum; details: 10 days, 0 to 100 scale (0 no effect, 100 complete control)
In short: as §1

soybean [21] = test: Test C postemergence; assay type: in vivo, Glycine max; details: 10 days, 0 to 100 scale (0 no effect, 100 complete control)
In short: as §1

wheat [22] = test: Test C postemergence; assay type: in vivo, Triticum aestivum; details: 10 days, 0 to 100 scale (0 no effect, 100 complete control)
In short: as §1

galium = test: Test C postemergence; assay type: in vivo, Galium aparine; details: 10 days, 0 to 100 scale (0 no effect, 100 complete control)
In short: as §1

horseweed = test: Test C postemergence; assay type: in vivo, Erigeron canadensis; details: 10 days, 0 to 100 scale (0 no effect, 100 complete control)
In short: as §1

barnyardgrass [23] = test: Test D flooded paddy test; assay type: in vivo, Echinochloa crus-galli; details: 250 g ai/ha, applied to paddy water, visual rating after 13 to 14 days, scale 0 to 100 (0 no effect, 100 complete control)
In short: (§2)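 Post-flood water application at the 2-leaf stage; 3 cm flood depth kept constant; visual control rating 0–100 after 13–14 days greenhouse growth.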

ducksalad = test: Test D flooded paddy test; assay type: in vivo, Heteranthera limosa; details: 250 g ai/ha, applied to paddy water, visual rating after 13 to 14 days, scale 0 to 100 (0 no effect, 100 complete control)
In short: as §2

rice = test: Test D flooded paddy test; assay type: in vivo, Oryza sativa; details: 250 g ai/ha, applied to paddy water, visual rating after 13 to 14 days, scale 0 to 100 (0 no effect, 100 complete control)
In short: as §2

sedge, umbrella = test: Test D flooded paddy test; assay type: in vivo, Cyperus difformis; details: 250 g ai/ha, applied to paddy water, visual rating after 13 to 14 days, scale 0 to 100 (0 no effect, 100 complete control)
In short: as §2

[24] = 500 g ai/ha, preemergence, 0 to 100 scale (0 no effect, 100 complete control)
[25] = Preemergence, 125 g ai/ha, 0 to 100 scale, 0 no effect, 100 complete control

CCOCC1CN(C(=O)c2cc(-n3cnc(CC)n3)ccc2OC)c2cccc(Cl)c2O1 (stereo not shown) [Compound 378]
Barnyardgrass plant response rating (barnyardgrass [1]; [24]): 100 | Plant response rating, Barnyardgrass (barnyardgrass [1]; [25]): 80 | Blackgrass plant response rating (blackgrass [2]; [24]): 50 | Plant response rating, Blackgrass (blackgrass [2]; [25]): 10 | Corn plant response rating (corn [3]; [24]): 50 | Plant response rating, Corn (corn [3]; [25]): 0 | Foxtail, Green plant response rating (green foxtail [4]; [24]): 100 | Plant response rating, Foxtail, Green (green foxtail [4]; [25]): 90 | Kochia plant response rating (kochia [5]; [24]): 100 | Plant response rating, Kochia (kochia [5]; [25]): 100 | Oat, Wild plant response rating (oat, wild [6]; [24]): 60 | Plant response rating, Oat, Wild (oat, wild [6]; [25]): 20 | Pigweed, Palmer plant response rating (pigweed, palmer [7]; [24]): 100 | Plant response rating, Pigweed, Palmer (pigweed, palmer [7]; [25]): 100 | Ragweed plant response rating (ragweed [8]; [24]): 80 | Plant response rating, Ragweed (ragweed [8]; [25]): 60 | Ryegrass, Italian plant response rating (ryegrass, Italian [9]; [24]): 90 | Plant response rating, Ryegrass, Italian (ryegrass, Italian [9]; [25]): 60 | Soybean plant response rating (soybean [10]; [24]): 90 | Plant response rating, Soybean (soybean [10]; [25]): 60 | Wheat plant response rating (wheat [11]; [24]): 30 | Plant response rating, Wheat (wheat [11]; [25]): 10 | Plant response rating, Barnyardgrass (barnyardgrass [12]; 500 g ai/ha, postemergence): 80 | Plant response rating, Barnyardgrass (barnyardgrass [12]; Postemergence, 125 g ai/ha): 40 | Plant response rating, Blackgrass (blackgrass [13]; 500 g ai/ha, postemergence): 50 | Plant response rating, Blackgrass (blackgrass [13]; Postemergence, 125 g ai/ha): 30 | Plant response rating, Corn (corn [14]; 500 g ai/ha, postemergence): 80 | Plant response rating, Corn (corn [14]; Postemergence, 125 g ai/ha): 20 | Plant response rating, Foxtail, Green (green foxtail [15]; 500 g ai/ha, postemergence): 90 | Plant response rating, Foxtail, Green (green foxtail [15]; Postemergence, 125 g ai/ha): 70 | Plant response rating, Kochia (kochia [16]; 500 g ai/ha, postemergence): 100 | Plant response rating, Kochia (kochia [16]; Postemergence, 125 g ai/ha): 90 | Plant response rating, Oat, Wild (oat, wild [17]; 500 g ai/ha, postemergence): 30 | Plant response rating, Oat, Wild (oat, wild [17]; Postemergence, 125 g ai/ha): 0 | Plant response rating, Pigweed, Palmer (pigweed, palmer [18]; 500 g ai/ha, postemergence): 100 | Plant response rating, Pigweed, Palmer (pigweed, palmer [18]; Postemergence, 125 g ai/ha): 90 | Plant response rating, Ragweed (ragweed [19]; 500 g ai/ha, postemergence): 90 | Plant response rating, Ragweed (ragweed [19]; Postemergence, 125 g ai/ha): 70 | Plant response rating, Ryegrass, Italian (ryegrass, Italian [20]; 500 g ai/ha, postemergence): 60 | Plant response rating, Ryegrass, Italian (ryegrass, Italian [20]; Postemergence, 125 g ai/ha): 20 | Plant response rating, Soybean (soybean [21]; 500 g ai/ha, postemergence): 100 | Plant response rating, Soybean (soybean [21]; Postemergence, 125 g ai/ha): 100 | Plant response rating, Wheat (wheat [22]; 500 g ai/ha, postemergence): 40 | Plant response rating, Wheat (wheat [22]; Postemergence, 125 g ai/ha): 30 | Plant response rating, Galium (galium; 500 g ai/ha, postemergence): 100 | Plant response rating, Galium (galium; Postemergence, 125 g ai/ha): 90 | Plant response rating, Horseweed (horseweed; 500 g ai/ha, postemergence): 70 | Plant response rating, Horseweed (horseweed; Postemergence, 125 g ai/ha): 10 | Plant response rating, Barnyardgrass (Flood) (barnyardgrass [23]): 0 | Plant response rating, Ducksalad (Flood) (ducksalad): 0 | Plant response rating, Rice (Flood) (rice): 0 | Plant response rating, Sedge, Umbrella (Flood) (sedge, umbrella): 0

From patent publication US20260262643A1, “HERBICIDAL BENZOXAZINES” (FMC CORPORATION, priority 2022, published 2026)
